Experimental data taken from US20230322846A9, “NEUROACTIVE STEROIDS AND THEIR METHODS OF USE” (SAGE THERAPEUTICS, INC., priority 2018, published 2023).

The compounds below were run against [35S]-TBPS binding, rat brain cortical membranes (assay: Steroid inhibition of [35S]-TBPS binding). Conditions: 3 nM [35S]-TBPS, in the presence of 5 mM GABA.
Procedure, shortened: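 In the presence of […], compounds (DMSO 0.5% final) competed with 3 nM [35S]-TBPS for Sprague-Dawley rat cortical membranes, pH 7.4 phosphate buffer, 90 min, room temperature. Filtration and scintillation counting; specific binding defined by […]; IC50 and maximal inhibition fitted per experiment, averaged as mean ± SEM.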

Row | SMILES | IC50 [nM]
1 | COC[C@@]1(O)CC[C@H]2[C@H](CC[C@@H]3[C@@H]2CC[C@]2(C)[C@@H]([C@@H](C)NC(=O)c4ccc(F)cc4)CC[C@@H]32)C1 [Example 113] | 100 to 1000
2 | COC[C@@]1(O)CC[C@H]2[C@H](CC[C@@H]3[C@@H]2CC[C@]2(C)[C@@H]([C@H](C)NC(=O)c4ccc(F)cc4)CC[C@@H]32)C1 [Example 114] | 1000 to 10000
3 | C[C@H](NC(=O)c1ccc(C#N)cc1)[C@H]1CC[C@H]2[C@@H]3CC[C@@H]4C[C@](C)(O)CC[C@@H]4[C@H]3CC[C@]12C [Example 115] | 1000 to 10000
4 | C[C@@H](NC(=O)c1ccc(F)cc1)[C@H]1CC[C@H]2[C@@H]3CC[C@@H]4C[C@](C)(O)CC[C@@H]4[C@H]3CC[C@]12C [Example 116] | < 100
5 | C[C@H](NC(=O)c1ccc(F)cc1)[C@H]1CC[C@H]2[C@@H]3CC[C@@H]4C[C@](C)(O)CC[C@@H]4[C@H]3CC[C@]12C [Example 117] | 1000 to 10000
6 | COC[C@@]1(O)CC[C@H]2[C@H](CC[C@@H]3[C@@H]2CC[C@]2(C)[C@@H]([C@@H](C)NC(=O)c4cc(C)nn4C)CC[C@@H]32)C1 [Example 118] | 100 to 1000
7 | COC[C@@]1(O)CC[C@H]2[C@H](CC[C@@H]3[C@@H]2CC[C@]2(C)[C@@H]([C@H](C)NC(=O)c4cc(C)nn4C)CC[C@@H]32)C1 [Example 119] | 1000 to 10000
8 | C[C@H](NC(=O)c1ccc(C#N)cn1)[C@H]1CC[C@H]2[C@@H]3CC[C@@H]4C[C@](C)(O)CC[C@@H]4[C@H]3CC[C@]12C [Example 121] | 1000 to 10000
9 | C[C@H](NC(=O)c1ccc(F)cn1)[C@H]1CC[C@H]2[C@@H]3CC[C@@H]4C[C@](C)(O)CC[C@@H]4[C@H]3CC[C@]12C [Example 124] | 100 to 1000
10 | COC[C@@]1(O)CC[C@H]2[C@H](CC[C@@H]3[C@@H]2CC[C@]2(C)[C@@H]([C@@H](C)NC(=O)c4ccc(F)cn4)CC[C@@H]32)C1 [Example 125] | 100 to 1000
11 | COC[C@@]1(O)CC[C@H]2[C@H](CC[C@@H]3[C@@H]2CC[C@]2(C)[C@@H]([C@H](C)NC(=O)c4ccc(F)cn4)CC[C@@H]32)C1 [Example 126] | 1000 to 10000
12 | C[C@@H](NC(=O)c1ccc(F)cn1)[C@H]1CC[C@H]2[C@@H]3CC[C@@H]4C[C@](C)(O)CC[C@@H]4[C@H]3CC[C@]12C [Example 127] | 100 to 1000
13 | COC[C@@]1(O)CC[C@H]2[C@H](CC[C@@H]3[C@@H]2CC[C@]2(C)[C@@H]([C@@H](C)NC(=O)c4ccc(OC(F)(F)F)cn4)CC[C@@H]32)C1 [Example 128] | 100 to 1000
14 | COC[C@@]1(O)CC[C@H]2[C@H](CC[C@@H]3[C@@H]2CC[C@]2(C)[C@@H]([C@H](C)NC(=O)c4ccc(OC(F)(F)F)cn4)CC[C@@H]32)C1 [Example 129] | 100 to 1000
15 | C[C@@H](NC(=O)c1ccc(C#N)cc1F)[C@H]1CC[C@H]2[C@@H]3CC[C@@H]4C[C@](C)(O)CC[C@@H]4[C@H]3CC[C@]12C [Example 130] | < 100
16 | COC[C@@]1(O)CC[C@H]2[C@H](CC[C@@H]3[C@@H]2CC[C@]2(C)[C@@H]([C@@H](C)NC(=O)c4ccc(C#N)cc4F)CC[C@@H]32)C1 [Example 131] | < 100
17 | CCOC[C@@]1(O)CC[C@H]2[C@H](CC[C@@H]3[C@@H]2CC[C@]2(C)[C@@H]([C@@H](C)NC(=O)c4ccc(C#N)cc4F)CC[C@@H]32)C1 [Example 133] | < 100
18 | COC[C@@]1(O)CC[C@H]2[C@H](CC[C@@H]3[C@@H]2CC[C@]2(C)[C@@H]([C@@H](C)NC(=O)c4ccc(F)cc4F)CC[C@@H]32)C1 [Example 134] | < 100
19 | COC[C@@]1(O)CC[C@H]2[C@H](CC[C@@H]3[C@@H]2CC[C@]2(C)[C@@H]([C@H](C)NC(=O)c4ccc(F)cc4F)CC[C@@H]32)C1 [Example 135] | 1000 to 10000
20 | COC[C@@]1(O)CC[C@H]2[C@H](CC[C@@H]3[C@@H]2CC[C@]2(C)[C@@H]([C@@H](C)n4cc(C#N)cn4)CC[C@@H]32)C1 [Example 150, 1-((R)-1-((3R, 5R, 8R, 9R, 10S, 135, 145, 17S)-3-hydroxy-3-(methoxymethyl)-13-methylhexadecahydro-1H-cyclopenta[a]phenanthren-17-yl)ethyl)-1H-pyrazole-4-carbonitrile] | < 100
21 | COC[C@@]1(O)CC[C@H]2[C@H](CC[C@@H]3[C@@H]2CC[C@]2(C)[C@@H]([C@H](C)n4cc(C#N)cn4)CC[C@@H]32)C1 [Example 151, 1-((S)-1-((3R,5R,8R,9R,10S,13S,14S,17S)-3-hydroxy-3-(methoxymethyl)-13-methylhexadecahydro-1H-cyclopenta[a]phenanthren-17-yl)ethyl)-1H-pyrazole-4-carbonitrile] | 1000 to 10000
22 | COC[C@@]1(O)CC[C@H]2[C@H](CC[C@@H]3[C@@H]2CC[C@]2(C)[C@@H]([C@@H](C)n4ncc(C#N)c4N)CC[C@@H]32)C1 [Example 152, 5-amino-1-((R)-1-((3R,5R,8R,9R,10S,13S,14S,17S)-3-hydroxy-3-(methoxymethyl)-13-methylhexadecahydro-1H-cyclopenta[a]phenanthren-17-yl)ethyl)-1H-pyrazole-4-carbonitrile] | 1000 to 10000
23 | COC[C@@]1(O)CC[C@H]2[C@H](CC[C@@H]3[C@@H]2CC[C@]2(C)[C@@H]([C@H](C)n4ncc(C#N)c4N)CC[C@@H]32)C1 [Example 153, 5-amino-1-((S)-1-((3R,5R,8R,9R,10S,13S,14S,17S)-3-hydroxy-3-(methoxymethyl)-13-methylhexadecahydro-1H-cyclopenta[a]phenanthren-17-yl)ethyl)-1H-pyrazole-4-carbonitrile] | 1000 to 10000
24 | C[C@H]([C@H]1CC[C@H]2[C@@H]3CC[C@@H]4C[C@](C)(O)CC[C@@H]4[C@H]3CC[C@]12C)n1ncc(C#N)c1N [Example 154, 5-amino-1-((R)-1-((3R,5R,8R,9R,10S,13S,14S,17S)-3-hydroxy-3,13-dimethylhexadecahydro-1H-cyclopenta[a]phenanthren-17-yl)ethyl)-1H-pyrazole-4-carbonitrile] | 1000 to 10000
25 | C[C@@H]([C@H]1CC[C@H]2[C@@H]3CC[C@@H]4C[C@](C)(O)CC[C@@H]4[C@H]3CC[C@]12C)n1ncc(C#N)c1N [Example 155, 5-amino-1-((S)-1-((3R,5R,8R,9R,10S,13S,14S,17S)-3-hydroxy-3,13-dimethylhexadecahydro-1H-cyclopenta[a]phenanthren-17-yl)ethyl)-1H-pyrazole-4-carbonitrile] | 1000 to 10000
26 | C[C@H]([C@H]1CC[C@H]2[C@@H]3CC[C@@H]4C[C@](C)(O)CC[C@@H]4[C@H]3CC[C@]12C)n1cc(C#N)cn1 [Example 156, 1-((R)-1-((3R,5R,8R,9R,10S,13S,14S,17S)-3-hydroxy-3,13-dimethylhexadecahydro-1H-cyclopenta[a]phenanthren-17-yl)ethyl)-1H-pyrazole-4-carbonitrile] | < 100
